ChEMBL document CHEMBL1201862, “PubChem BioAssay data set” (2004)
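Exposure lasted 48 hours, with cells grown in 96-well plates and compounds tested at five concentrations. GI50 is the concentration that inhibits growth by half.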 Activity calls are given as the source filed them. Cut-off read from the data, not from the text of the source: active = GI50 up to about 1.1 µM and inactive = higher.

Key:
Assay in all cases: NCI anticancer screen, dose series, 48 h
SN12C = test system: SN12C
OVCAR-3 = test system: OVCAR-3
DLD-1 = test system: DLD-1
UACC-62 = test system: UACC-62
SK-OV-3 = test system: SK-OV-3
SNB-19 = test system: SNB-19
U-251 = test system: U-251
CCRF-CEM = test system: CCRF-CEM
HCC 2998 = test system: HCC 2998
LXFL 529 = test system: LXFL 529
UO-31 = test system: UO-31
SW-620 = test system: SW-620
SK-MEL-28 = test system: SK-MEL-28
SF-268 = test system: SF-268
COLO 205 = test system: COLO 205
HCT-15 = test system: HCT-15
HT-29 = test system: HT-29
A549 = test system: A549
XF498 = test system: XF498
NCI-H23 = test system: NCI-H23
HOP-92 = test system: HOP-92
M14 = test system: M14
K562 = test system: K562
KM12 = test system: KM12
EKVX = test system: EKVX
SF-295 = test system: SF-295
CAKI-1 = test system: CAKI-1
RXF 631 = test system: RXF 631
SF-539 = test system: SF-539
Malme-3M = test system: Malme-3M
MOLT-4 = test system: MOLT-4
KM-20L2 = test system: KM-20L2
SK-MEL-5 = test system: SK-MEL-5
786-0 = test system: 786-0
SR = test system: SR
TK-10 = test system: TK-10
IGROV-1 = test system: IGROV-1
RXF 393 = test system: RXF 393
OVCAR-5 = test system: OVCAR-5
DMS-114 = test system: DMS-114
M19-MEL = test system: M19-MEL
OVCAR-8 = test system: OVCAR-8
ACHN = test system: ACHN
SNB-78 = test system: SNB-78
SK-MEL-2 = test system: SK-MEL-2
NCI-H522 = test system: NCI-H522
OVCAR-4 = test system: OVCAR-4
NCI-H460 = test system: NCI-H460
DMS-273 = test system: DMS-273
SNB-75 = test system: SNB-75
A498 = test system: A498
UACC-257 = test system: UACC-257
NCI-H226 = test system: NCI-H226
HL-60 = test system: HL-60
LOX IMVI = test system: LOX IMVI
RPMI-8226 = test system: RPMI-8226
HOP-62 = test system: HOP-62
HOP-18 = test system: HOP-18
HCT-116 = test system: HCT-116

O=C1OC(c2ccccc2)=N/C1=C/C=C/c1ccco1
GI50 (SN12C): > 100 µM (inactive)
GI50 (OVCAR-3): > 100 µM (inactive)
GI50 (DLD-1): > 100 µM (inactive)
GI50 (UACC-62): > 100 µM (inactive)
GI50 (SK-OV-3): > 100 µM (inactive)
GI50 (SNB-19): > 100 µM (inactive)
GI50 (U-251): > 100 µM (inactive)
GI50 (CCRF-CEM): > 100 µM (inactive)
GI50 (HCC 2998): > 100 µM (inactive)
GI50 (LXFL 529): > 100 µM (inactive)
GI50 (UO-31): > 100 µM (inactive)
GI50 (SW-620): > 100 µM (inactive)
GI50 (SK-MEL-28): > 100 µM (inactive)
GI50 (SF-268): > 100 µM (inactive)
GI50 (COLO 205): > 100 µM (inactive)
GI50 (HCT-15): > 100 µM
GI50 (HT-29): > 100 µM (inactive)
GI50 (A549): > 100 µM (inactive)
GI50 (XF498): > 100 µM (inactive)
GI50 (NCI-H23): > 100 µM (inactive)
GI50 (HOP-92): > 100 µM (inactive)
GI50 (M14): > 100 µM (inactive)
GI50 (K562): > 100 µM (inactive)
GI50 (KM12): > 100 µM (inactive)
GI50 (EKVX): > 100 µM (inactive)
GI50 (SF-295): > 100 µM (inactive)
GI50 (CAKI-1): > 100 µM (inactive)
GI50 (RXF 631): > 100 µM (inactive)
GI50 (SF-539): > 100 µM (inactive)
GI50 (Malme-3M): > 100 µM (inactive)
GI50 (MOLT-4): > 100 µM (inactive)
GI50 (KM-20L2): > 100 µM (inactive)
GI50 (SK-MEL-5): > 100 µM (inactive)
GI50 (786-0): > 100 µM (inactive)
GI50 (SR): > 100 µM (inactive)
GI50 (TK-10): > 100 µM (inactive)
GI50 (IGROV-1): > 100 µM (inactive)
GI50 (RXF 393): > 100 µM (inactive)
GI50 (OVCAR-5): > 100 µM (inactive)
GI50 (DMS-114): > 100 µM (inactive)
GI50 (M19-MEL): > 100 µM (inactive)
GI50 (OVCAR-8): > 100 µM (inactive)
GI50 (ACHN): > 100 µM (inactive)
GI50 (SNB-78): > 100 µM (inactive)
GI50 (SK-MEL-2): > 100 µM (inactive)
GI50 (NCI-H522): > 100 µM (inactive)
GI50 (OVCAR-4): > 100 µM (inactive)

CC1=C(C(=O)Nc2ccc([N+](=O)[O-])cc2)C(c2ccccc2O)C(C(=O)Nc2ccc([N+](=O)[O-])cc2)=C(C)N1
GI50 (SN12C): 19.6 µM (inactive)
GI50 (OVCAR-3): 20.5 µM (inactive)
GI50 (NCI-H460): 21.4 µM (inactive)
GI50 (DLD-1): 18.5 µM (inactive)
GI50 (SK-OV-3): 21.1 µM (inactive)
GI50 (SNB-19): 37.2 µM (inactive)
GI50 (U-251): 21.4 µM (inactive)
GI50 (DMS-273): 23.3 µM (inactive)
GI50 (CCRF-CEM): 18 µM (inactive)
GI50 (HCC 2998): 13.5 µM (inactive)
GI50 (LXFL 529): 19.1 µM (inactive)
GI50 (UO-31): 15.2 µM (inactive)
GI50 (SNB-75): 25.8 µM (inactive)
GI50 (SW-620): 29.2 µM (inactive)
GI50 (SK-MEL-28): 21.6 µM (inactive)
GI50 (SF-268): 19.1 µM (inactive)
GI50 (A498): 20.1 µM (inactive)
GI50 (COLO 205): 17.5 µM (inactive)
GI50 (HT-29): 28.4 µM (inactive)
GI50 (A549): 28.2 µM (inactive)
GI50 (XF498): 13.6 µM (inactive)
GI50 (NCI-H23): 18.6 µM (inactive)
GI50 (HOP-92): 11.7 µM (inactive)
GI50 (M14): 19.3 µM (inactive)
GI50 (UACC-257): 21.7 µM (inactive)
GI50 (K562): 17.9 µM (inactive)
GI50 (KM12): 20.2 µM (inactive)
GI50 (EKVX): 23.1 µM (inactive)
GI50 (SF-295): 29.6 µM (inactive)
GI50 (NCI-H226): 16.6 µM (inactive)
GI50 (HL-60): 19.2 µM (inactive)
GI50 (LOX IMVI): 16.1 µM (inactive)
GI50 (CAKI-1): 21.4 µM (inactive)
GI50 (RXF 631): 15.4 µM (inactive)
GI50 (SF-539): 22.1 µM (inactive)
GI50 (Malme-3M): 21.8 µM (inactive)
GI50 (RPMI-8226): 17.6 µM (inactive)
GI50 (MOLT-4): 15.2 µM (inactive)
GI50 (KM-20L2): 14.5 µM (inactive)
GI50 (SK-MEL-5): 16.4 µM (inactive)
GI50 (786-0): 21.2 µM (inactive)
GI50 (TK-10): 44.7 µM (inactive)
GI50 (IGROV-1): 25.9 µM (inactive)
GI50 (RXF 393): 10.1 µM (inactive)
GI50 (OVCAR-5): 16 µM (inactive)
GI50 (DMS-114): 15.3 µM (inactive)
GI50 (HOP-62): 14.1 µM (inactive)
GI50 (M19-MEL): 20.5 µM (inactive)
GI50 (OVCAR-8): 28.2 µM (inactive)
GI50 (ACHN): 13.8 µM (inactive)
GI50 (SNB-78): 30.5 µM (inactive)
GI50 (SK-MEL-2): 15.6 µM (inactive)
GI50 (NCI-H522): 15 µM (inactive)
GI50 (OVCAR-4): 23.7 µM (inactive)

Cn1nc(-c2ccccc2)c2c(/C=C/c3ccccc3)onc2c1=O
GI50 (SN12C): > 100 µM (inactive)
GI50 (OVCAR-3): 50.6 µM (inactive)
GI50 (NCI-H460): > 100 µM (inactive)
GI50 (DLD-1): 78.9 µM (inactive)
GI50 (UACC-62): 23.8 µM (inactive)
GI50 (SK-OV-3): 43.8 µM (inactive)
GI50 (SNB-19): 67.3 µM (inactive)
GI50 (U-251): 64 µM (inactive)
GI50 (CCRF-CEM): > 100 µM (inactive)
GI50 (HCC 2998): 83.6 µM (inactive)
GI50 (LXFL 529): > 100 µM (inactive)
GI50 (UO-31): 6.82 µM (inactive)
GI50 (SNB-75): 27 µM (inactive)
GI50 (SK-MEL-28): > 100 µM (inactive)
GI50 (SF-268): 43.9 µM (inactive)
GI50 (HOP-18): 25.5 µM (inactive)
GI50 (A498): > 100 µM (inactive)
GI50 (COLO 205): > 100 µM (inactive)
GI50 (HCT-15): > 100 µM
GI50 (HT-29): > 100 µM (inactive)
GI50 (A549): > 100 µM (inactive)
GI50 (XF498): 26.8 µM (inactive)
GI50 (NCI-H23): > 100 µM (inactive)
GI50 (HOP-92): 33 µM (inactive)
GI50 (M14): > 100 µM (inactive)
GI50 (UACC-257): > 100 µM (inactive)
GI50 (K562): > 100 µM (inactive)
GI50 (KM12): > 100 µM (inactive)
GI50 (EKVX): 67.1 µM (inactive)
GI50 (SF-295): 38.9 µM (inactive)
GI50 (NCI-H226): > 100 µM (inactive)
GI50 (HL-60): > 100 µM (inactive)
GI50 (LOX IMVI): > 100 µM (inactive)
GI50 (CAKI-1): 69 µM (inactive)
GI50 (RXF 631): 73.3 µM (inactive)
GI50 (SF-539): 65.8 µM (inactive)
GI50 (Malme-3M): 71.4 µM (inactive)
GI50 (RPMI-8226): > 100 µM (inactive)
GI50 (MOLT-4): > 100 µM (inactive)
GI50 (KM-20L2): > 100 µM (inactive)
GI50 (SK-MEL-5): > 100 µM (inactive)
GI50 (786-0): 33 µM (inactive)
GI50 (SR): 95.7 µM (inactive)
GI50 (TK-10): > 100 µM (inactive)
GI50 (IGROV-1): > 100 µM (inactive)
GI50 (HCT-116): > 100 µM (inactive)
GI50 (RXF 393): 46.1 µM (inactive)
GI50 (OVCAR-5): > 100 µM (inactive)
GI50 (DMS-114): 98.4 µM (inactive)
GI50 (HOP-62): 41.8 µM (inactive)
GI50 (M19-MEL): > 100 µM (inactive)
GI50 (OVCAR-8): 33.7 µM (inactive)
GI50 (ACHN): > 100 µM (inactive)
GI50 (SNB-78): 38.7 µM (inactive)
GI50 (SK-MEL-2): > 100 µM (inactive)
GI50 (NCI-H522): 37.3 µM (inactive)
